Values quoted from earlier work in patent EP0984012A2, “Nitric oxide releasing oxindole prodrugs with analgesic and anti-inflammatory properties” (Pfizer Products Inc., priority 1998, dated 2000).

Assays:
[1] = animal models of acute and chronic inflammation; versus parent NSAID
[2] = administered on both an acute and a chronic basis; versus parent NSAID
[3] = tested on: experimental gastric ulcers; conditions: rat, daily treatment

For CC(C(=O)OCCCCO[N+](=O)[O-])c1ccc(-c2ccccc2)c(F)c1 (stereo not drawn) [flurbiprofen nitroxybutylester], the anti-inflammatory activity [1] is listed as “comparable to that of their parent NSAIDs”, the mitochondrial damage (small intestine; in vivo) is listed as “associated with mitochondrial damage in vivo” and the “macroscopic damage in the small intestine” value (small intestine; rats, versus flurbiprofen) is listed as “significantly less macroscopic damage in the small intestine than flurbiprofen”. For the same compound, the gastric injury [2] was “markedly less gastric injury than that produced by their parent NSAIDs”.

For O=C(O)Cc1ccccc1Nc1c(Cl)cccc1Cl [diclofenac], the “healing of experimental gastric ulcers” value [3] is given as “no effect”.

In the case of O=C(Cc1ccccc1Nc1c(Cl)cccc1Cl)OCCCCO[N+](=O)[O-] [nitrofenac, diclofenac-4-nitroxybutylester], the anti-inflammatory activity [1] is listed as “comparable to that of their parent NSAIDs”, the “healing of experimental gastric ulcers” value [3] is listed as “accelerated” and the gastric injury [2] is listed as “markedly less gastric injury than that produced by their parent NSAIDs”.

For O=[N+]([O-])OCC(CO[N+](=O)[O-])O[N+](=O)[O-] [glyceryl trinitrate], the “healing of experimental gastric ulcers” value [3] is listed as “accelerated”.

For COc1ccc2cc(CCC(C)=O)ccc2c1 [nabumetone], the “healing of experimental gastric ulcers” value [3] is listed as “no effect”.

In the case of CC(C(=O)OCCCCO[N+](=O)[O-])c1cccc(C(=O)c2ccccc2)c1 (stereo not drawn) [ketoprofen nitroxybutylester], the anti-inflammatory activity [1] is listed as “comparable to that of their parent NSAIDs” and the gastric injury [2] is listed as “markedly less gastric injury than that produced by their parent NSAIDs”.
